# Experimental data: patent US6737383B1, “Herbicidal oxadiazolidines” (priority 1999, dated 2004)
# Assays:
# bedstraw = assay: Test B pre/postemergence bedstraw; format: in vivo, Galium aparine
# Method in brief: (§1)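 Test chemicals in a non-phytotoxic solvent mixture with surfactant were sprayed preemergence onto planted seeds and postemergence onto plants 2 to 18 cm tall (1- to 4-leaf stage). After twelve to sixteen days in a greenhouse, injury was visually rated against untreated controls from 0 (no effect) to 10 (complete control).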
# blackgrass = assay: Test B pre/postemergence blackgrass; format: in vivo, Alopecurus myosuroides
# Method in brief: as §1
# surinam grass = assay: Test B pre/postemergence surinam grass; format: in vivo, Brachiaria decumbens
# Method in brief: as §1
# cocklebur = assay: Test B pre/postemergence cocklebur; format: in vivo, Xanthium strumarium
# Method in brief: as §1
# corn = assay: Test B pre/postemergence corn; format: in vivo, Zea mays
# Method in brief: as §1
# crabgrass = assay: Test B pre/postemergence crabgrass; format: in vivo, Digitaria sanguinalis
# Method in brief: as §1
# giant foxtail = assay: Test B pre/postemergence giant foxtail; format: in vivo, Setaria faberii
# Method in brief: as §1
# morningglory = assay: Test B pre/postemergence morningglory; format: in vivo, Ipomoea hederacea
# Method in brief: as §1
# pigweed = assay: Test B pre/postemergence pigweed; format: in vivo, Amaranthus retroflexus
# Method in brief: as §1
# rape = assay: Test B pre/postemergence rape; format: in vivo, Brassica napus
# Method in brief: as §1
# soybean = assay: Test B pre/postemergence soybean; format: in vivo, Glycine max
# Method in brief: as §1
# sugar beet = assay: Test B pre/postemergence sugar beet; format: in vivo, Beta vulgaris
# Method in brief: as §1
# velvetleaf = assay: Test B pre/postemergence velvetleaf; format: in vivo, Abutilon theophrasti
# Method in brief: as §1
# wheat = assay: Test B pre/postemergence wheat; format: in vivo, Triticum aestivum
# Method in brief: as §1
# wild oat = assay: Test B pre/postemergence wild oat; format: in vivo, Avena fatua
# Method in brief: as §1
# purple nutsedge = assay: Test B pre/postemergence purple nutsedge; format: in vivo, Cyperus rotundus
# Method in brief: as §1
# [1] = Postemergence, Rate 62 g/ha, scale of 0 to 10, 0 is no effect, 10 is complete control
# [2] = Postemergence, Rate 125 g/ha, scale 0 to 10, 0 is no effect, 10 is complete control
# [3] = Postemergence, Rate 500 g/ha, scale 0 to 10, 0 is no effect, 10 is complete control
# [4] = Preemergence, Rate 62 g/ha, scale 0 to 10 (0 no effect, 10 complete control)
# [5] = Preemergence, Rate 125 g/ha, scale 0 to 10, 0 is no effect, 10 is complete control
# [6] = Preemergence, Rate 500 g/ha, scale of 0 to 10 where 0 is no effect and 10 is complete control
# [7] = Rate 250 g/ha, Postemergence, scale of 0 to 10 where 0 is no effect and 10 is complete control
structure (smiles),measurement,setting,value
CCC(=O)Cn1c(=O)on(C(=O)N(c2ccc(Cl)cc2)C(C)C)c1=O [Compound 553],Bedstraw plant response rating,bedstraw; [1],0
same,Bedstraw plant response rating,bedstraw; [2],2
same,"Plant response rating, Bedstraw",bedstraw; [3],7
same,Bedstraw plant response rating,bedstraw; [4],0
same,Bedstraw plant response rating,bedstraw; [5],0
same,Bedstraw plant response rating (0 to 10 scale),"bedstraw; Preemergence, Rate 250 g/ha",2
same,Bedstraw plant response rating,bedstraw; [6],10
same,"Plant response rating, Bedstraw",bedstraw; [7],2
same,Blackgrass plant response rating,blackgrass; [1],0
same,Blackgrass plant response rating,blackgrass; [2],0
same,"Plant response rating, Blackgrass",blackgrass; [3],7
same,Blackgrass plant response rating,blackgrass; [4],7
same,Blackgrass plant response rating,blackgrass; [5],7
same,Blackgrass plant response rating (0 to 10 scale),"blackgrass; Preemergence, Rate 250 g/ha",7
same,"Plant response rating, Blackgrass",blackgrass; [7],3
same,B. signalgrass plant response rating,surinam grass; [1],0
same,B. signalgrass plant response rating,surinam grass; [2],0
same,"Plant response rating, B. signalgrass",surinam grass; [3],5
same,B. signalgrass plant response rating,surinam grass; [4],6
same,B. signalgrass plant response rating,surinam grass; [5],9
same,"B. signalgrass plant response rating (0 to 10 scale, 0 is no effect, 10 is complete control)","surinam grass; Preemergence, Rate 250 g/ha",9
same,B. signalgrass plant response rating,surinam grass; [6],8
same,"Plant response rating, B. signalgrass",surinam grass; [7],3
same,Cocklebur plant response rating,cocklebur; [1],0
same,"Plant response rating, Cocklebur",cocklebur; [3],2
same,Cocklebur plant response rating,cocklebur; [5],0
same,Cocklebur plant response rating (0 to 10 scale),"cocklebur; Preemergence, Rate 250 g/ha",0
same,Cocklebur plant response rating,cocklebur; [6],10
same,"Plant response rating, Cocklebur",cocklebur; [7],0
same,Corn plant response rating,corn; [1],0
same,Corn plant response rating,corn; [2],0
same,"Plant response rating, Corn",corn; [3],0
same,Corn plant response rating,corn; [4],0
same,Corn plant response rating,corn; [5],0
same,Corn plant response rating (0 to 10 scale),"corn; Preemergence, Rate 250 g/ha",0
same,Corn plant response rating,corn; [6],3
same,"Plant response rating, Corn",corn; [7],0
same,Crabgrass plant response rating,crabgrass; [1],0
same,Crabgrass plant response rating,crabgrass; [2],3
same,"Plant response rating, Crabgrass",crabgrass; [3],9
same,Crabgrass plant response rating,crabgrass; [4],10
same,Crabgrass plant response rating,crabgrass; [5],9
same,Crabgrass plant response rating (0 to 10 scale),"crabgrass; Preemergence, Rate 250 g/ha",10
same,Crabgrass plant response rating,crabgrass; [6],10
same,"Plant response rating, Crabgrass",crabgrass; [7],8
same,Giant foxtail plant response rating,giant foxtail; [1],0
same,Giant foxtail plant response rating,giant foxtail; [2],7
same,"Plant response rating, Giant foxtail",giant foxtail; [3],7
same,Giant foxtail plant response rating,giant foxtail; [4],10
same,Giant foxtail plant response rating,giant foxtail; [5],10
same,Giant foxtail plant response rating (0 to 10 scale),"giant foxtail; Preemergence, Rate 250 g/ha",10
same,Giant foxtail plant response rating,giant foxtail; [6],10
same,"Plant response rating, Giant foxtail",giant foxtail; [7],6
same,Morningglory plant response rating,morningglory; [1],0
same,Morningglory plant response rating,morningglory; [2],0
same,"Plant response rating, Morningglory",morningglory; [3],0
same,Morningglory plant response rating,morningglory; [4],0
same,Morningglory plant response rating,morningglory; [5],0
same,Morningglory plant response rating (0 to 10 scale),"morningglory; Preemergence, Rate 250 g/ha",0
same,Morningglory plant response rating,morningglory; [6],2
same,"Plant response rating, Morningglory",morningglory; [7],0
same,Redroot pigweed plant response rating,pigweed; [1],0
same,"Plant response rating, Redroot pigweed",pigweed; [3],0
same,Redroot pigweed plant response rating,pigweed; [4],0
same,Redroot pigweed plant response rating,pigweed; [5],7
same,Redroot pigweed plant response rating (0 to 10 scale),"pigweed; Preemergence, Rate 250 g/ha",9
same,"Plant response rating, Redroot pigweed",pigweed; [7],0
same,Rape plant response rating,rape; [1],2
same,Rape plant response rating,rape; [2],6
same,Rape plant response rating,rape; [4],0
same,Rape plant response rating,rape; [5],3
same,Rape plant response rating (0 to 10 scale),"rape; Preemergence, Rate 250 g/ha",3
same,"Plant response rating, Rape",rape; [7],7
same,Soybean plant response rating,soybean; [1],1
same,Soybean plant response rating,soybean; [4],0
same,Soybean plant response rating,soybean; [5],0
same,Soybean plant response rating (0 to 10 scale),"soybean; Preemergence, Rate 250 g/ha",0
same,Soybean plant response rating,soybean; [6],3
same,"Plant response rating, Soybean",soybean; [7],3
same,Sugarbeets plant response rating,sugar beet; [1],0
same,"Plant response rating, Sugarbeets",sugar beet; [3],2
same,Sugarbeets plant response rating,sugar beet; [4],0
same,Sugarbeets plant response rating,sugar beet; [5],3
same,Sugarbeets plant response rating (0 to 10 scale),"sugar beet; Preemergence, Rate 250 g/ha",3
same,"Plant response rating, Sugarbeets",sugar beet; [7],0
same,Velvetleaf plant response rating,velvetleaf; [4],0
same,Velvetleaf plant response rating,velvetleaf; [5],0
same,Velvetleaf plant response rating (0 to 10 scale),"velvetleaf; Preemergence, Rate 250 g/ha",0
same,Velvetleaf plant response rating,velvetleaf; [6],2
same,"Plant response rating, Velvetleaf",velvetleaf; [7],5
same,Wheat plant response rating,wheat; [1],0
same,"Plant response rating, Wheat",wheat; [3],3
same,Wheat plant response rating,wheat; [5],0
same,Wheat plant response rating (0 to 10 scale),"wheat; Preemergence, Rate 250 g/ha",0
same,"Plant response rating, Wheat",wheat; [7],0
same,Wild oats plant response rating,wild oat; [1],0
same,"Plant response rating, Wild oats",wild oat; [3],2
same,Wild oats plant response rating,wild oat; [4],0
same,Wild oats plant response rating,wild oat; [5],0
same,Wild oats plant response rating (0 to 10 scale),"wild oat; Preemergence, Rate 250 g/ha",3
same,"Plant response rating, Wild oats",wild oat; [7],2
same,Nutsedge plant response rating,purple nutsedge; [1],0
same,Nutsedge plant response rating,purple nutsedge; [2],0
same,Nutsedge plant response rating,purple nutsedge; [4],0
same,Nutsedge plant response rating,purple nutsedge; [5],0
same,Nutsedge plant response rating (0 to 10 scale),"purple nutsedge; Preemergence, Rate 250 g/ha",0
same,Nutsedge plant response rating,purple nutsedge; [6],0
same,"Plant response rating, Nutsedge",purple nutsedge; [7],0
